Results: US5298490A, “Tetra and penta-peptides useful in regulating the immune system” (Immunobiology Research Institute, Inc., priority 1990, dated 1994)
Square brackets hold non-standard residues; d marks the D form. Ends that are not written are not given here. Peptide text beside a SMILES is read from it. Aib = CC(C)(N)C(=O)O

How the values were obtained:
MOLT-4 cells [1] = assay: Cyclic GMP assay in MOLT-4 cells; type: cell-based, human; conditions: for activity in cGMP dose-response curves (FIG. 1): evaluated from 1 to 1000 μgs/ml in MOLT-4 cells
From the text: This assay measures the ability of a peptide of this invention to bind to the cell membrane receptor of the intact MOLT-4 cell and selectively stimulate production of cyclic GMP, as does human thysplenin and human thymopentin.
The MOLT-4 cell line was obtained from the American Type Culture Collection of Rockville, Md. MOLT-4 cells were freshly seeded and grown for 3 days with harvesting as described in T. Audhya et al, Arch. Biochem Biophys., 234: 167-177 (1984). The cells were washed 3 times in PBS and resuspended in RPMI 1640 at a concentration of 1.0×10^7 cells/ml and were allowed to equilibrate at 37° C. for 30 minutes before the addition of the test tetrapeptides and pentapeptides (25 ul) and control peptides. The incubation was allowed to proceed in a shaking water bath for 4-5 minutes and was then terminated by addition of 1 ml ice-cold TCA (10 percent).
The cells in TCA were homogenized and sonicated to release cyclic nucleotide. The suspension was centrifuged at 3000×g for 20 minutes at 4° C. The resulting precipitate was dissolved in 0.1N NaOH to determine the protein content. TCA was removed from the supernatant fraction by extracting 4 times with 5 ml of water-saturated diethyl ether. After the final extraction, the remaining traces of ether were removed by heating for 10 minutes in a 50° C. water bath. After lyophilization the sample was reconstituted in 50 mM acetate buffer (pH 6.2) for radioimmunoassay of cyclic GMP.
A threshold activity was determined for each peptide tested. This is defined as the lowest concentration of the test peptide which induced an intracellular level of cyclic GMP greater than two standard deviations above the control. The controls had intracellular cyclic GMP values of less than 0.5 picomoles/ml (mean±standard deviation). Test results were considered positive if the level of cyclic GMP was greater than 2 times (2 standard deviations) that determined for the parallel negative control.

[2] = Kisfaludy et al 1983; cited from earlier work
[3] = system: non-obese diabetic (NOD) mice; assay: Diabetic mice assay; type: in vivo; conditions: 1 mg/kg body weight one time a week from weaning, vs vehicle
From the text: A strain of non-obese diabetic (NOD) laboratory mice maintained in Hopital Necker, Paris, France, have been bred in which the females spontaneously develop autoimmune disease of the pancreas. In the normal course of this disease in mice, the pancreatic cells are destroyed, resulting in loss of insulin production and diabetes mellitus. This mouse strain thus is a close model of Type I onset juvenile diabetes, which is normally treated with insulin replacement, but which can be typically slowed by immunosuppressive drugs, e.g., cyclosporin.
In this assay, groups of 12 to 20 NOD female mice are injected with 1 mg/kg body weight of a peptide of the present invention one time a week at weaning. This peptide (acetyl-Arg-Pro-Val-Ala-NH2) called splenoralin was administered the above-described formulation containing glycine and raffinose. A control group of mice were injected similarly with 1 mg of the glycine-raffinose vehicle without the peptide one time a week.

BP8 murine tumor cells = assay: BP8 tumor inhibition assay; type: in vivo, C3H mice; conditions: 30 ng or 30 μg subcutaneously once per week, vs glycine-raffinose vehicle
Protocol: An assay is performed using normal healthy C3H laboratory mice. The mice, in groups of 12 to 20, are injected subcutaneously with either 30 ng or 30 μg of a peptide of the present invention once per week. This peptide (acetyl-Arg-Pro-Val-Ala-NH2) called splenoralin was administered in citrate buffer containing 1% glycine and 2% D-raffinose pentahydrate, as described in pending United States patent application Ser. No. 336,236, incorporated herein by reference. A control group of mice were injected similarly with 30 μg of the glycine-raffinose vehicle without the peptide.
Four weeks after the initiation of these weekly injections, each mouse was inoculated intradermally with 5×10^6 BP8 murine tumor cells. BP8 is a conventional benzpyrene induced murine tumor. Once every week thereafter, each mouse is injected with the same amount of either the peptide formulation or the vehicle alone.
FIG. 3 indicates the percent of mice in each group which are negative for the presence of BP8 tumors in the days after the inoculation of tumor cells. FIG. 4 indicates for the same experiment the maximum size of tumors in those mice that did develop tumors.

MOLT-4 cells [4] = conditions: cited from earlier work
CEM cells = conditions: cited from earlier work
[5] = Enzymatic stability in rat intestinal juice; conditions: 37° C., HPLC
Protocol: To illustrate the stability of a peptide of the present invention against degradation by intestinal and serum enzymes, an exemplary peptide Acetyl-Arg-Pro-Asp-Val-NH2 was incubated at 37° C. in rat intestinal juice and human serum for up to 120 minutes. Similarly treated for comparison were the tetrapeptide Arg-Lys-Asp-Val and thymopentin.

[6] = Enzymatic stability in human serum; type: in vitro ADME; conditions: 37° C., HPLC
From the text: Thymopentin was 50% degraded at about 20 seconds.

[7] = Table I, peptide concentration 1 μg/ml
[8] = Table I, peptide concentration 10 μg/ml
[9] = Table I, peptide concentration 100 μg/ml
[10] = Table I, peptide concentration 1000 μg/ml
[11] = Table II, peptide concentration 1 μg/ml
[12] = Table II, peptide concentration 10 μg/ml
[13] = Table II, peptide concentration 100 μg/ml

Molecule | cGMP Concentration (MOLT-4 cells [1]; [7]) | cGMP Concentration (MOLT-4 cells [1]; [8]) | cGMP Concentration (MOLT-4 cells [1]; [9]) | cGMP Concentration (MOLT-4 cells [1]; [10]) | also measured
CC(=O)N[C@@H](CCCNC(=N)N)C(=O)N1CCC[C@H]1C(=O)N[C@@H](C)C(=O)N[C@H](C(N)=O)C(C)C [Acetyl-Arg--Pro--Ala--Val--NH2, Acetyl-Arg-Pro-Ala-Val-NH2] (Ac-RPAV-NH2) | 7.1 picograms/ml | 14.6 picograms/ml | 19.1 picograms/ml | 24.5 picograms/ml | activity in cGMP dose-response curves (FIG. 1) (MOLT-4 cells [1]): active
Acetyl-Arg-Pro-beta-Asp-Gly-NH2 [Acetyl-Arg--Pro-β-Asp--Gly--NH2] | 20.56 picograms/ml | 31.83 picograms/ml | 36.66 picograms/ml | 34.95 picograms/ml | 
Arg-Ala-Asp-Val (RADV; printed: Arg-Ala-Asp-Val) |  |  |  |  | activity in in vitro E rosette test [2]: drastically reduced activity
CC(=O)N[C@@H](CCCNC(=N)N)C(=O)N1CCC[C@H]1C(=O)N[C@H](C(=O)N[C@@H](C)C(N)=O)C(C)C [Acetyl-Arg--Pro--Val--Ala--NH2, Acetyl-Arg-Pro-Val-Ala-NH2] (Ac-RPVA-NH2) |  |  |  |  | incidence of diabetes / survival in NOD female mice (FIG. 6) [3]: restored the immune function and allowed survival of a greater number of animals than did the placebo; resistance to BP8 tumor growth (percent tumor negative, tumor size; FIG. 3, 4) (BP8 murine tumor cells): enabled the mice to resist the spread and growth of the tumor cells; cGMP Concentration (MOLT-4 cells [1]; [11]): 7.77 picograms/ml; cGMP Concentration (MOLT-4 cells [1]; [12]): 17.39 picograms/ml; cGMP Concentration (MOLT-4 cells [1]; [13]): 24.47 picograms/ml; activity in cGMP dose-response curves (FIG. 2) (MOLT-4 cells [1]; evaluated from 1 to 100 μgs/ml in MOLT-4 cells): active
CC(=O)N[C@@H](CCCNC(=N)N)C(=O)NC(C)(C)C(=O)N[C@@H](C)C(=O)N[C@H](C(N)=O)C(C)C [Acetyl-Arg--Aib--Ala--Val--NH2, Acetyl-Arg-Aib-Ala-Val-NH2] (Ac-R[Aib]AV-NH2) | 18.78 picograms/ml | 30.45 picograms/ml | 36.17 picograms/ml | 39.48 picograms/ml | 
Acetyl-Arg-Pro-β-D-Asp-Val-NH2 [Acetyl-Arg--Pro-β-D-Asp--Val--NH2] | 6.6 picograms/ml | 14.3 picograms/ml | 20.5 picograms/ml | 25.0 picograms/ml | activity in cGMP dose-response curves (FIG. 1) (MOLT-4 cells [1]): active
RKDVY [Arg--Lys--Asp--Val--Tyr, Arg-Lys-Asp-Val-Tyr, reference compound] | 6.4 picograms/ml | 18.3 picograms/ml | 20.8 picograms/ml | 21.9 picograms/ml | biological changes in MOLT-4 cells (MOLT-4 cells [4]): induce biological changes; biological changes in CEM cells (CEM cells): induce biological changes; cGMP Concentration (MOLT-4 cells [1]; [11]): 3.55 picograms/ml; cGMP Concentration (MOLT-4 cells [1]; [12]): 13.56 picograms/ml; cGMP Concentration (MOLT-4 cells [1]; [13]): 18.70 picograms/ml; cGMP Concentration (MOLT-4 cells [1]; Table II, peptide concentration 1000 μg/ml): 24.85 picograms/ml
CC(C)[C@H](NC(=O)[C@H](CC(=O)O)NC(=O)[C@H](CCCCN)NC(=O)[C@@H](N)CCCNC(=N)N)C(=O)O [Arg-Lys-Asp-Val, reference compound] (H-RKDV-OH) |  |  |  |  | time after which totally digested ([5]; rat intestinal juice and human serum, matrix of this value not stated): 25 s
CC(=O)N[C@@H](CCCNC(=N)N)C(=O)N1CCC[C@H]1C(=O)N[C@@H](CC(=O)O)C(=O)N[C@H](C(N)=O)C(C)C [Acetyl-Arg--Pro--Asp--Val--NH2, Acetyl-Arg-Pro-Asp-Val-NH2] (Ac-RPDV-NH2) | 4.55 picograms/ml | 8.99 picograms/ml | 19.62 picograms/ml | 24.09 picograms/ml | time remaining substantially undegraded ([5]; rat intestinal juice): at least 120 seconds; time remaining substantially undegraded [6]: at least 120 seconds
CC(=O)N[C@@H](CCCNC(=N)N)C(=O)N1CCC[C@H]1C(=O)N[C@@H](CCC(N)=O)C(=O)N[C@H](C(N)=O)C(C)C [Acetyl-Arg--Pro--Gln--Val--NH2] (Ac-RPQV-NH2) | 18.75 picograms/ml | 29.68 picograms/ml | 34.98 picograms/ml | 40.23 picograms/ml | 
thymopoietin: immunomodulatory protein isolated from bovine and human thymus (PEFLEDPSVLTKDKLKSELVANNVTLPAGEQRKDVYVQLYLQHLTARNR; Thymopoietin; UniProt P42166 2-50, looked up) |  |  |  |  | biological changes in MOLT-4 cells (MOLT-4 cells [4]): induce biological changes; biological changes in CEM cells (CEM cells): induce biological changes
Arg-Lys-Glu-Val (RKEV; printed: Arg-Lys-Glu-Val) |  |  |  |  | activity in in vitro E rosette test [2]: highly active
CC(=O)N[C@@H](CCCNC(=N)N)C(=O)NC(C)(C)C(=O)N[C@@H](CCC(=O)O)C(=O)N[C@H](C(N)=O)C(C)C [Acetyl-Arg--Aib--Glu--Val--NH2, Acetyl-Arg-Aib-Glu-Val-NH2] (Ac-R[Aib]EV-NH2) | 3.7 picograms/ml | 11.0 picograms/ml | 17.7 picograms/ml | 24.9 picograms/ml | 
CC(=O)N[C@@H](CCCNC(=N)N)C(=O)N1CCC[C@H]1C(=O)N[C@@H](CCC(=O)O)C(=O)N[C@H](C(N)=O)C(C)C [Acetyl-Arg--Pro--Glu--Val--NH2, Acetyl-Arg-Pro-Glu-Val-NH2] (Ac-RPEV-NH2) | 4.7 picograms/ml | 9.41 picograms/ml | 16.76 picograms/ml | 25.00 picograms/ml | 
Arg-Lys-Ala-Val (RKAV; printed: Arg-Lys-Ala-Val) |  |  |  |  | activity in in vitro E rosette test [2]: drastically reduced activity
CC(=O)N[C@@H](CCCNC(=N)N)C(=O)N1CCC[C@H]1C(=O)N[C@@H](CC(=O)O)C(=O)N1CCC[C@H]1C(N)=O [Acetyl-Arg-Pro-Asp-Pro-NH2, reference compound] (Ac-RPDP-NH2) |  |  |  |  | activity in cGMP dose-response curves (FIG. 1) (MOLT-4 cells [1]): inactive
